Values of other authors in patent US10028971B2, “Compositions and methods for treating psychiatric disorders” (GOSFORTH CENTRE (HOLDINGS) PTY LTD., priority 2008, dated 2018).
Counter-ions that a name gives are not always drawn. Like-named read-outs stand apart in the source and are kept apart here.

Test system: mood stabilisation or epileptic symptoms or events
Details: cited from earlier work
[1] = usual minimum anti-convulsant dose per day

Compound | Minimum Dose/day effective for mood stabilisation or treatment of epileptic symptoms or events [1] | Minimum Dose/day effective for mood stabilisation or treatment of epileptic symptoms or events (usual minimum anti-convulsant dose)
CCC1(c2ccc(N)cc2)CCC(=O)NC1=O (centres unmarked) [Aminoglutethimide] | 125 mg | 
CCC1(c2ccccc2)C(=O)NC(=O)NC1=O.CNC(C)CC1CCCCC1 [Barbexaclone] | 200 mg in divided doses | 
CCC[C@@H]1CC(=O)N([C@@H](CC)C(N)=O)C1 [Brivaracetam] | 100 mg | 
CN1C(=O)CC(=O)N(c2ccccc2)c2cc(Cl)ccc21 [Clobazam] |  | 5 mg/kg daily
O=C1CN=C(c2ccccc2Cl)c2cc([N+](=O)[O-])ccc2N1 [Clonazepam] | 1 mg | 
CCN1C(=O)OC(C)(C)C1=O [Ethadione] | 1000 mg | 
CCC1(C)CC(=O)NC1=O (centres unmarked) [Ethosuximide] | 1000 mg | 
CCN1C(=O)NC(c2ccccc2)C1=O (centres unmarked) [Ethotoin] | 1000 mg | 
NC(=O)OCC(COC(N)=O)c1ccccc1 [Felbamate] | 1200 mg | 
O=C1NC(c2ccccc2)(c2ccccc2)C(=O)N1COP(=O)(O)O [Fosphenytoin Sodium] | 10 mg/kg | 
NCC1(CC(=O)O)CCCCC1 [Gabapentin, 2-[1-(aminomethyl)cyclohexyl]acetic acid] | 900 mg | 
COC[C@@H](NC(C)=O)C(=O)NCc1ccccc1 [Lacosamide] | 200 mg | 
Nc1nnc(-c2cccc(Cl)c2Cl)c(N)n1 [Lamotrigine, 3,5-diamino-6-(2,3-dichlorophenyl)-1,2,4-triazine] | 100 mg | 
CC[C@@H](C(N)=O)N1CCCC1=O [Levetiracetam] | 1000 mg | 
COC1=CC(=O)OC1C(O)c1ccccc1Cl (centres unmarked) [Losigamone] | 1500 mg | 
CCC1(c2ccccc2)NC(=O)N(C)C1=O (centres unmarked) [Mephenytoin] | 200 mg | 
CCC1(c2ccccc2)NC(=O)N(C)C1=O (centres unmarked) [Methoin] | 1000 mg | 
CN1C(=O)CC(C)(c2ccccc2)C1=O (centres unmarked) [Methsuximide] | 300 mg | 
CCC1(C)OC(=O)N(C)C1=O (centres unmarked) [Paramethadione] | 300 mg | 
N#Cc1ccccc1-c1cc(-c2ccccn2)cn(-c2ccccc2)c1=O [Perampanel] | 2 mg | 
NC(=O)NC(=O)Cc1ccccc1 [Phenacemide] | 500 mg | 
CCC(C(=O)NC(N)=O)c1ccccc1 (centres unmarked) [Pheneturide] | 600 mg | 
CN1C(=O)CC(c2ccccc2)C1=O (centres unmarked) [Phensuximide] | 1000 mg | 
CC(C)C[C@H](CN)CC(=O)O [Pregabalin, (S)-3-(aminomethyl)-5-methylhexanoic acid] | 300 mg | 
CCC1(c2ccccc2)C(=O)NCNC1=O [Primidone] | 750 mg | 
NS(=O)(=O)c1ccc(N2CCCCS2(=O)=O)cc1 [Sultiame] | 200 mg | 
Cc1ccsc1C(=CCCN1CCC[C@@H](C(=O)O)C1)c1sccc1C [Tiagabine Hydrochloride] | 30 mg | 
CN1C(=O)OC(C)(C)C1=O [Trimethadione] | 900 mg | 
C=CC(N)CCC(=O)O (centres unmarked) [Vigabatrin] | 1000 mg | 
